The values that follow come from ChEMBL document CHEMBL1142600, “Production of justicidin B, a cytotoxic arylnaphthalene lignan from genetically transformed root cultures of Linum leonii” (J Nat Prod, 2006).

Holding throughout (type): functional, cell-based
In test [1] the test system is K562. Nature of the test: Cytotoxicity against human K-562 cells after 72 hrs by MTT assay. Conditions: K562, 72 h.
The subject of test [2] is LAMA-84. Nature of the test: Cytotoxicity against human LAMA-84 cells after 72 hrs by MTT assay. The following applies: LAMA-84, 72 h.
The nature of test [3]: Cytotoxicity against human SKW3 cells after 72 hrs by MTT assay. Conditions: SKW3, 72 h.

In the case of `COc1cc([C@@H]2c3cc4c(cc3[C@@H](O[C@@H]3O[C@@H]5CO[C@@H](C)O[C@H]5[C@H](O)[C@H]3O)[C@H]3COC(=O)[C@H]23)OCO4)cc(OC)c1O` [ETOPOSIDE], the half-inhibitory concentration (IC50) in test [1] came out at 1870 nM; in test [2], 790 nM; in test [3], 820 nM.
